The text below walks through data of US6924292B2, “Furoisoquinoline derivatives, process for producing the same and use thereof” (Takeda Chemical Industries, Ltd., priority 2000, dated 2005).

The target in experiment [1] is T1, recombinant human brain-derived phosphodiesterase 4D3 (Homo sapiens, UniProt Q08499).
T1 construct: GST (N); made in house; host or cells: Escherichia coli BL21 (BL21/pPDE4D3, FERM BP-7075)
The experiment can be described thus: Assay of phosphodiesterase IV-inhibiting effect (SPA, [3H]cAMP). It counts as biochemical. As to conditions: recombinant human brain-derived phosphodiesterase 4D3, SPA with [3H]cAMP, 30 minutes at 30° C.; read-out: PDE IV-inhibiting effect (IC50). From the text: Experiment Example 1 Assay of Phosphodiesterase IV-inhibiting Effect
(1) Human Brain-derived Phosphodiesterase 4D3-encoding Gene Cloning
From a human brain cDNA library, a gene encoding phosphodiesterase 4D3 was cloned. […] The resultant PCR product was subjected to an agarose gel electrophoresis and an about 2.4 kb DNA fragment was recovered. This fragment was made blunt using a Pfu DNA polymerase ([…]) and then a phosphodiesterase 4D3 gene was cloned using Zero Blunt PCR Cloning Kit (Invitrogen).
(2) Construction of E.coli Expression Vector
The plasmid obtained in Section (1) described above was digested with a restriction enzyme EcoRI (Takara) and subjected to an agarose gel electrophoresis to recover an about 2.4 kb DNA fragment. […] This cDNA fragment was transformed into an E.coli BL21 (FUNAKOSHI) using a ligation solution, whereby obtaining an Escherichia coli BL21/pPDE4D3 capable of expressing the phosphodiesterase 4D3 gene.
(3) Expression of Recombinant Human Brain-derived Phosphodiesterase 4D3 in Escherichia coli and Purification Thereof
Using the Escherichia coli BL21/pPDE4D3 obtained in Section (2) described above, a recombinant human brain-derived phosphodiesterase 4D3 was obtained. The expression and purification of E. coli were in accordance with the protocol attached to GST Gene Fusion System (Pharmacia).
(4) Assay of Phosphodiesterase IV-inhibiting Effect
To a 96-well plate (OPTI plate, Packard), 10 μl of a buffer solution [0.5 M Tris-HCl (pH7.5), 83 mM MgCl2, 17 mM EGTA], 10 μl of the recombinant human brain-derived phosphodiesterase 4D3 (0.0034 mg/mL) obtained in […] described above, 65 μl of Ultrapure water, 5 μl of an inhibitor sample and 10 μl of [^3H]cAMP were added and reacted for 30 minutes at 30° C. After completing the reaction, 50 μl of SPA beads solution [18 mg/mL Yttrium silicate beads, 18 mM ZnSO4] was added, allowed to stand at room temperature for about 20 minutes, and the radioactivity was counted using a scintillation counter (Topcount, Packard). […] This assay system was employed to determine the recombinant human brain-derived phosphodiesterase-inhibiting effect (IC50) of each inventive compound.

The test system of experiment [2] is antigen-induced bronchoconstriction. The experiment can be described thus: Inhibiting effect on antigen-induced bronchoconstriction in guinea pigs (modified Konzett-Rossler method). It counts as in vivo. As to conditions: guinea pig, 1 mg/kg intravenously 5 minutes before the antigen challenge, vs control group. The procedure:
Example 2 Inhibiting Effect on Antigen-induced Bronchoconstriction in Guinea Pigs
(1) Preparation of Rabbit Anti-ovalbumin (OA) Serum
A white rabbit (body weight: about 3 kg; New Zealand white: […] LABES) was immunized by an intramuscular administration of 1.0 mL of an emulsion of 0.5 mL of a 10% OA (Grade III, Sigma) solution and 0.5 mL of Freund Complete Adjuvant (WAKO PURE CHEMICAL […], LTD.). This procedure was conducted once every week repetitively 4 times in total. One week after the final immunization, the whole blood was sampled. The blood sample was allowed to stand at room temperature for 1 hour or longer, and then in a refrigeration room for a day. On the following day, the serum fraction was isolated and centrifuged (3000 rpm, 10 min.), and the supernatant was stored as an antiserum at −20° C.
(2) Antigen-induced Bronchoconstriction
The bronchoconstriction was measured by a modified Konzett-Rossler method. Each male Hartley guinea pig weighing 400 to 500 g (NIPPON SLC, Shizuoka) was anesthetized with ether, treated intravenously with 1.0 mL of a 8- to 16-fold diluted anti-OA serum, and subjected to an experiment after 16 to 24 hours. Under an anesthesia with urethane (1.2 g/kg ip) (Aldrich), a tracheal cannula was inserted, and gallamine triethiodide (1 mg/kg iv) (Sigma) was administered to arrest the spontaneous respiration. The animal was ventilated artificially using an artificial respirator (Harvard model 683) at 70 respirations/minutes, with each ventilation volume of 2 to 3 mL and initial load of 10 cmH2O, and the intratracheal pressure was measured at the side arm of the tracheal cannula using a differential pressure type transducer. Mepyramine maleate (1.0 mg/kg) (Sigma) and propranolol (1.0 mg/kg) (Sigma) were administered intravenously 2 minutes after the administration of gallamine triethiodide, and after further 2 minutes the OA antigen (1.0 mg/kg) was administered intravenously to induce the bronchoconstriction.
A compound of Example was dissolved in 25% dimethylacetamide, 25% polyethylene glycol 400 and 50% physiological saline, and administered intravenously 5 minutes before the antigen challenge at a dose of 1 mg/kg. Percent inhibition was calculated based on the comparison with a control group (intravenous administration of a mixture of 25% dimethylacetamide, 25% polyethylene glycol 400 and 50% physiological saline).

T1 sequence (Q08499 1-673 isoform Q08499-2): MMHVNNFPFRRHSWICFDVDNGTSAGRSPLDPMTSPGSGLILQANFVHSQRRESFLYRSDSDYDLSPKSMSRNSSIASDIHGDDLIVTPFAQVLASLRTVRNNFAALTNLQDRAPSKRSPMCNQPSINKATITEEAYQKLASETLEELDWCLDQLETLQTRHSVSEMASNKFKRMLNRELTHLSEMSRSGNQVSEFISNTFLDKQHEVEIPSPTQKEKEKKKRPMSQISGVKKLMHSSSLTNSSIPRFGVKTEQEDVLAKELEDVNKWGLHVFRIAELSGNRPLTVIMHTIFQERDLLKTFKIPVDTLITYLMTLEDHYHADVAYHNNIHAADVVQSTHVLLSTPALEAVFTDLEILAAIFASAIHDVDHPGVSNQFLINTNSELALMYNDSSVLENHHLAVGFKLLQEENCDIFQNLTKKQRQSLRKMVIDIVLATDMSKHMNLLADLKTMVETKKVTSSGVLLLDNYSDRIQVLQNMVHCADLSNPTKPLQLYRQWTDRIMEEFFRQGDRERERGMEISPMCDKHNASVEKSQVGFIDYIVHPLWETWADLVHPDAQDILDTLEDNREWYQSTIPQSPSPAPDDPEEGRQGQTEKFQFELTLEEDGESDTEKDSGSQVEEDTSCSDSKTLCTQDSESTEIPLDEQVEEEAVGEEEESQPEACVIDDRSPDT

A word on the IC50: it is the midpoint of a concentration-inhibition curve. In the case of `COc1cc2c(c3c1OC(C)(C)C3)C(c1cccc(N(S(C)(=O)=O)S(C)(=O)=O)c1)=NC(C)(C)C2` [Example 45, N-(Methylsulfonyl)-N-[3-(3.4,8,9-tetrahydro-6-methoxy-3,3,8,8-tetramethylfuro[2,3-h]isoquinolin-1-yl)phenyl]methanesulfonamide], the IC50 in experiment [1] came to 9.36 nM. For the same compound, the “% inhibition in bronchoconstriction” value in experiment [2] was determined as 44%.

As to `COc1cc2c(c3c1OC(C)(C)C3)C(c1cccc(NC(=O)C[S+](C)[O-])c1)=NC(C)(C)C2` (centres unmarked) [Example 39, 2-(Methylsulfinyl)-N-[3-(3,4,8,9-tetrahydro-6-methoxy-3,3,8,8-tetramethylfuro[2,3-h]isoquinolin-1-yl)phenyl]acetamide], the IC50 in experiment [1] is 19.4 nM. Also, the “% inhibition in bronchoconstriction” value in experiment [2] is 45%.

Take `COc1cc2c(c3c1OC(C)(C)C3)C(c1cccc(C(=O)NCC(N)=O)c1)=NC(C)(C)C2` [Example 157, N-(2-Amino-2-oxoethyl)-3-(3,4,8,9-tetrahydro-6-methoxy-3,3,8,8-tetramethylfuro[2,3-h]isoquinolin-1-yl)benzamide]: the IC50 in experiment [1] turned out to be 82 nM. In addition, the “% inhibition in bronchoconstriction” value in experiment [2] was 57%.

`CNC(=O)c1cccc(C2=NC(C)(C)Cc3cc(OC)c4c(c32)CC(C)(C)O4)c1` [Example 179, N-Methyl-3-(3,4,8,9-tetrahydro-6-methoxy-3,3,8,8-tetramethylfuro[2,3-h]isoquinolin-1-yl)benzamide]: the IC50 in experiment [1] is 124 nM. Besides, the “% inhibition in bronchoconstriction” value in experiment [2] was 46%.

As for `COc1cc2c(c3c1OC(C)(C)C3)C(c1cccc(C(=O)NCCc3ccncc3)c1)=NC(C)(C)C2` [Example 149, N-[2-(4-Pyridinyl)ethyl]-3-(3,4.8,9-tetrahydro-6-methoxy-3,3,8,8-tetramethylfuro[2,3-h]isoquinolin-1-yl)benzamide], the IC50 in experiment [1] is 40.1 nM. Also, the “% inhibition in bronchoconstriction” value in experiment [2] worked out at 58%.

Take `CCNC(=O)c1cccc(C2=NC(C)(C)Cc3cc(OC)c4c(c32)CC(C)(C)O4)c1` [Example 180, N-Ethyl-3-(3,4,8,9-tetrahydro-6-methoxy-3,3,8,8-tetramethylfuro[2,3-h]isoquinolin-1-yl)benzamide]: the IC50 in experiment [1] is 123 nM. Moreover, in experiment [2], the “% inhibition in bronchoconstriction” value was 57%.

Take `COc1cc2c(c3c1OC(C)(C)C3)C(c1cccc(-c3cccc(NC(C)=O)c3)c1)=NC(C)(C)C2` [Example 263, N-[3′-(3,4,8,9-Tetrahydro-6-methoxy-3,3,8,8-tetramethylfuro[2,3-h]isoquinolin-1-yl)[1,1′-biphenyl]-3-yl]acetamide]: the IC50 in experiment [1] turned out to be 13.7 nM. The “% inhibition in bronchoconstriction” value in experiment [2] worked out at 59%.
